Measured values as given in patent US8093286B2, “Methods for treatment with bucindolol based on genetic targeting” (The Regents of the University of Colorado, a body corporate, priority 2004, dated 2012).
Entries after “also recorded” stand apart in the source; their conditions may differ. Where a name gives a salt, the structure may show the parent alone.

Columns and labels:
β1-Gly389 receptor = molecular target: T1, β1-Gly389 receptor (Homo sapiens, UniProt P08588); experiment: norepinephrine-stimulated cAMP accumulation in stably transfected CHW cells (functional antagonism); assay type: cell-based
T1 construct: expressed in transfected cells
Procedure: (§1) Chinese hamster fibroblasts (CHW cells) were stably transfected with the human Arg389 and Gly389 cDNAs as previously described (Mason et al., 1999). Lines with equivalent levels of expression as determined by radioligand binding were studied to ascertain the antagonist effect of bucindolol on norepinephrine stimulated cAMP accumulation. Cells in monolayers were treated with 10 μM norepinephrine in the absence and presence of various concentrations of bucindolol for 20 min at 37° C. and [^3H]cAMP isolated by column chromatography (Salomon, 1991).
(§2) Chinese hamster fibroblasts were stably transfected using constructs previously described so as to separately express the human β1-Arg389 or β1-Gly389 receptors. β1AR expression, and affinity for bucindolol, were determined by radioligand binding studies with ^125I-cyanopindolol (125I-CYP), using 1 μM propranolol to define nonspecific binding as described. Whole cell cAMP accumulation studies were carried out by the [^3H]-adenine method using two lines with equivalent expression levels of the two receptors as indicated. Attached cells were exposed to vehicle (basal), 10 μM norepinephrine or 10 uM norepinephrine with the indicated concentrations of bucindolol for 15 min at 37° C.

β1-Arg389 receptor = molecular target: T2, β1-Arg389 receptor (Homo sapiens, UniProt P08588, G389R); experiment: as above; assay type: cell-based
T2 construct: expressed in transfected cells
Procedure: as §1, §2

[1] = tested on: nonfailing human right ventricular trabeculae; experiment: contractile response of isolated right ventricular trabeculae from nonfailing human hearts; conditions: with and without forskolin
Procedure: Nonfailing hearts were obtained from local potential organ donors whose hearts were not transplanted because of physical or ABO blood type incompatibility. Failing hearts were from patients with end-stage heart failure due to ischemic or non-ischemic dilated cardiomyopathies who underwent cardiac transplantation. The demographic characteristics of the hearts are provided in Results. The contractile response of isolated, field stimulated, human trabeculae was assessed as previously described {1755; a-c}. Trabeculae of uniform size (1 to 2×6 to 8 mm) were mounted in 80 ml muscle bath chambers in Tyrode's solution at pH 7.45 bubbled with 95% O2-5% CO2 at 36^0. After equilibration, a tension of 75% of Lmax was applied to each individual trabeculum. Field-stimulation by a 5-ms pulse at 10% above threshold was then applied, and after equilibration full dose-response curves to isoproterenol, bucindolol or xamoterol were performed using the indicated concentrations and application of increasing doses every 5 minutes. In experiments in which forskolin was used to enhance signal transduction {e,f}, 10^−6 M of this adenylyl cyclase activator was applied to the tissue baths 15-20 minutes prior to the performance of dose-response curves, and allowed to achieve stability of tension response. Systolic tension at each dose was calculated as the stimulated tension in mN/mm^2 minus baseline tension. The maximum tension, concentration of isoproterenol that produced 50% of the maximum developed tension (EC50) and curve slope were computed by nonlinear repeated measures analysis of covariance. […] Statistical methods were employed as described in Examples 3 and 4.

[2] = bucindolol alone up to 10 μM, hydrochloride

T1 sequence (P08588 whole entry): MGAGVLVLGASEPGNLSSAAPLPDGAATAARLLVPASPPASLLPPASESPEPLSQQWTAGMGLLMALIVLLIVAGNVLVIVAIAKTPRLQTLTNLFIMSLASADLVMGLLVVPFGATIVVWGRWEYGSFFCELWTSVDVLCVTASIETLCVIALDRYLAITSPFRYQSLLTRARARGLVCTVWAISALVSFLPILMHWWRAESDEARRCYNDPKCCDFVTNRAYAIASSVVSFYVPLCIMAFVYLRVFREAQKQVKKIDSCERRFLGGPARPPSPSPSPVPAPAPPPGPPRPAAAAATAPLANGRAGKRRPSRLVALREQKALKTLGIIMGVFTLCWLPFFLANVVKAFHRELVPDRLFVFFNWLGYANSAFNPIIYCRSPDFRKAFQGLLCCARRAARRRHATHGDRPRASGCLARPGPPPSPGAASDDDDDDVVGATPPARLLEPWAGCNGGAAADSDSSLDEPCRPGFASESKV
T2 sequence (P08588 whole entry G389R): as the sequence (P08588 whole entry) above, with G389R counted along it

CC(C)(Cc1c[nH]c2ccccc12)NCC(O)COc1ccccc1C#N (stereo not drawn) [bucindolol, (2-{2-hydroxy-3{{2-(3-indolyl)-1,1-dimethylethyl}amino}propoxy}-benzonitrile hydrochloride)]
maximal decrease of cAMP (β1-Gly389 receptor; 10 μM norepinephrine + bucindolol, Gly389 cells, N=4): 115 ± 23 fmol/mL | stimulation of cAMP by bucindolol alone (intrinsic sympathomimetic activity) (β1-Gly389 receptor; [2]): no stimulation of cAMP; also recorded: no evidence for intrinsic sympathomimetic activity | inhibition at 0.1 µM (β1-Arg389 receptor; 0.1 μM bucindolol, read-out: inhibition of the Arg389 cAMP response): ~80% | maximal decrease of cAMP (β1-Arg389 receptor; 10 μM norepinephrine + bucindolol, Arg389 cells, N=4): 435 ± 80 fmol/mL | stimulation of cAMP by bucindolol alone (intrinsic sympathomimetic activity) (β1-Arg389 receptor; [2]): no stimulation of cAMP; also recorded: no evidence for intrinsic sympathomimetic activity | intrinsic sympathomimetic activity (increase in force) [1]: no evidence of ISA
